US20050239891A1, “Use of citrulline within the framework of intestinal insufficiency” (priority 2003, published 2005)

How the values were obtained:
[1] = test system: rats that have undergone an intestinal resection (short-bowel syndrome model); assay: Short-bowel syndrome model: enteral nutrition supplemented with citrulline or arginine after intestinal resection; assay type: in vivo, Wistar rats; conditions: for weight gain: resected rats (approx. 80% of small intestine), after 10 days of enteral nutrition, L-citrulline 1 g/kg/day or L-arginine 0.994 g/kg/day, AANE approx. 15 g, SHAM approx. 21 g (FIG. 1)
From the text: The rat was chosen as model to evaluate the effect of supplementation with citrulline within the framework of an intestinal insufficiency and in particular within the framework of the short-bowel syndrome.
24 Wistar rats weighing approximately 220-230 g were used. They were acclimatized in metabolic cages for 5 days before being operated on; during this period they had free access to water and standard laboratory food.
The intakes of L-arginine and L-citrulline correspond to those used in humans taking account of the difference in metabolic rate between the two species (rate approximately 10 times higher in the rat).
Enteral nutrition was carried out for 10 days continuously by the insertion of a gastric probe. The nitrogen intake was 2 g/kg/day and the calorie intake 290 kcal/kg/day. The food rations were rendered isonitrogenous by intake of a mixture of non-essential amino acids (Gly, Ala, Ser, His, Pro, Asn) (Sigma-Aldrich).
Three types of measurements were carried out in particular: a daily measurement of the weight of the animals, a measurement of the concentration of arginine in the plasma at the end of the experiment by ion-exchange chromatography using a JEOL device and a daily monitoring of the cumulative nitrogen balance by adding up the daily differences between the quantity of nitrogen absorbed and the quantity of nitrogen evacuated in the urine by pyroluminescence using an ANTEK apparatus.

[2] = test system: elderly malnourished rats; assay: Plasma amino acid concentrations in malnourished aged rats after renutrition; assay type: in vivo, Sprague-Dawley rats; conditions: diet enriched with L-citrulline 5 g/kg/d for a week, average ± SDM, p<0.05 vs AL, R and AANE
Method: (§1) Male Sprague-Dawley rats (Charles River Laboratories, L'Arbresles, France) aged 19 months were placed in individual cages, in a thermostatically controlled ambience (23°±1° C.), and subjected to a 12-hour light-darkness cycle (darkness from 08.00 hours to 20.00 hours). Their acclimatization was carried out over 2 weeks, during which their spontaneous food consumption was measured. They were fed a standard diet (A04, UAR, Villemoisson-sur-Orge, France) containing 17% proteins, 3% lipids, 59% carbohydrates and 21% water, fibres, vitamins and minerals. The average food intake during this period is 34.4 g/day.
(§2) After the acclimatization period, the rats were divided into 4 groups (cf. FIG. 5): a control group comprising rats (n=10) fed ad libitum (AL) for 12 weeks and 3 other groups subjected to a food restriction during the same period, i.e. fed with only 50% of the spontaneous ingesta (i.e. 17.2 g), with the standard diet (UAR A04).
(§3) At the end of the restriction period, the animals (n=10) in one group were […] sacrificed (group R) and the rats of the two remaining groups were fed for a week with 90% of the spontaneous ingesta (i.e. 30.9 g), either on a diet enriched with non-essential amino acids (AANE group: alanine, asparagine, glycine, serine, histidine, and proline supplied in equimolar fashion) or on a diet enriched with L-citrulline (5 g/kg/d) (citrulline group). The intakes of the two groups were isonitrogenous and isocaloric. The limitation to 90% of the spontaneous intakes makes it possible to be certain that the rats consume all of the food offered to them (Walrand et al., 2000).
(§4) At the end of the experimental period, the rats, in post-absorptive situation, were anaesthetized with isoflurane (3%) and received a subcutaneous injection of ^13C-valine at variable times before being killed by decapitation.
(§5) The blood was collected on heparin and centrifuged (3500 rpm, at +4° C. for 15 minutes). […]
(§6) The results are presented in the form of an average ±standard deviation from the mean (SDM). The results are analyzed by an ANOVA followed by an a posteriori Duncan test. […]

[3] = as above; assay type: in vivo, Sprague-Dawley rats; conditions: male, Sprague-Dawley, rat, plasma, oral; elderly malnourished rats, diet enriched with L-citrulline 5 g/kg/d for a week; average ± SDM; p<0.05 vs AL, R and AANE
Method: as §1, §2, §3, §4, §5, §6

[4] = test system: elderly malnourished rats; assay: Tibialis muscle amino acid content in malnourished aged rats after renutrition; assay type: in vivo, Sprague-Dawley rats; conditions: diet enriched with L-citrulline 5 g/kg/d for a week, average ± SDM, p<0.05 vs AL, R and AANE
Method: as §1, §2, §3
The 2 Tibialis muscles (TIB) were removed in order to determine on the one hand the protein and amino acid content (right TIB) and on the other hand, the fractional (FSR) and absolute (ASR) protein synthesis rates (left TIB). […]
as §6

[5] = test system: elderly malnourished rats; assay: Tibialis muscle protein synthesis rate (13C-valine incorporation) in malnourished aged rats after renutrition; assay type: in vivo, Sprague-Dawley rats; conditions: L-citrulline 5 g/kg/d for a week
Method: as §1
as §2, with “A04). […]” for “A04).”
The synthesis rate was determined on the TIB by the method of injecting a dose of a tracer amino acid charge. […]

[6] = test system: elderly malnourished rats; assay: Tibialis muscle protein content (Gornall method) in malnourished aged rats after renutrition; assay type: in vivo, Sprague-Dawley rats; conditions: after renutrition phase, L-citrulline 5 g/kg/d for a week; CIT vs AL, R, AANE, p<0.05 (FIG. 4)
Method: as §1
as §2, with “A04). […]” for “A04).”
Determination of the protein content was carried out on the TIB. […] The proteins content of the TIB is measured by the Gornall method. […]
as §6

Structure (SMILES) | weight gain [1] | concentration of arginine in the plasma ([1]; resected rats, after 10 days of supplemented enteral nutrition, compared with SHAM control (FIG. 2)) | cumulative nitrogen balance ([1]; resected rats, 10 days of supplemented enteral nutrition, compared with SHAM control (FIG. 3)) | Concentration of Ornithine in the plasma [2] | concentration of arginine in the plasma [2] | concentration at 1 week [3] | Concentration of Arginine in the TIB [4] | Concentration of Citrulline in the TIB [4] | Concentration of Ornithine in the TIB [4] | fractional protein synthesis rate (FSR) in the Tibialis muscle ([5]; compared with the other groups (FIG. 5A)) | absolute protein synthesis rate (ASR) in the Tibialis muscle ([5]; CIT vs R and AANE, p<0.05 (FIG. 5B)) | protein concentrations in the TIB [6]
N=C(N)NCCC[C@H](N)C(=O)O [ARG, L-arginine, reference compound] | approximately 17 g | increase the concentration of arginine in the plasma compared with the control | – | – | – | – | – | – | – | – | – | –
NC(=O)NCCC[C@H](N)C(=O)O [CIT, L-citrulline] | approximately 21 g | – | re-establish a nitrogen balance in the animals that have undergone resection, at the same level as that of the control group | 223 ± 27 µmol/L | 561 ± 55 µmol/L | 2390 ± 279 µM | 203 ± 35 nmol/g | 616 ± 104 nmol/g | 20 ± 4 nmol/g | does not seem significant | significant increase | significant increase
